In ChEMBL document CHEMBL1201862, “PubChem BioAssay data set” (2004):
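Exposure lasted 48 hours, with cells grown in 96-well plates and compounds tested at five concentrations. At the GI50, growth is halved.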 Active and inactive are the calls of the source. Rule as the data show it: active = GI50 up to about 1.1 µM and inactive = higher.

How the values were obtained:
Experiment in all cases: growth of human tumour cells (NCI), 48 h
[1] = tested on: HT-29
[2] = tested on: MDA-MB-435
[3] = tested on: UACC-62
[4] = tested on: LOX IMVI
[5] = tested on: SF-295
[6] = tested on: SNB-75
[7] = tested on: MDA-N
[8] = tested on: MDA-MB-231
[9] = tested on: RXF 393
[10] = tested on: MCF7
[11] = tested on: OVCAR-4
[12] = tested on: HCT-15
[13] = tested on: HL-60
[14] = tested on: 786-0
[15] = tested on: SN12C
[16] = tested on: BT-549
[17] = tested on: NCI-H226
[18] = tested on: CAKI-1
[19] = tested on: K562

For `CC(C)(C)c1cc(/C=C/C(=O)CC(=O)/C=C/c2cc(C(C)(C)C)c(O)c(C(C)(C)C)c2)cc(C(C)(C)C)c1O`, the GI50 [1] was > 50 µM (inactive), the GI50 [2] was > 50 µM (inactive) and the GI50 [3] was > 50 µM (inactive). For the same compound, the GI50 [4] was > 50 µM (inactive), the GI50 [5] was > 50 µM (inactive) and the GI50 [6] was > 50 µM (inactive). The GI50 [7] was > 50 µM (inactive), the GI50 [8] was > 50 µM (inactive) and the GI50 [9] was > 50 µM (inactive). The GI50 [10] was > 50 µM (inactive), the GI50 [11] was > 50 µM (inactive) and the GI50 [12] was over 50 µM. For the same compound, the GI50 [13] was > 50 µM (inactive), the GI50 [14] was > 50 µM (inactive) and the GI50 [15] was > 50 µM (inactive). The GI50 [16] was > 50 µM (inactive) and the GI50 [17] was > 50 µM (inactive).
With `CC(C)(C)c1cc(C(=O)C2Cc3ccccc3C(=O)O2)cc(C(C)(C)C)c1O` (stereo not given) the GI50 [18] was 19.3 µM (inactive), the GI50 [1] was 14.4 µM (inactive) and the GI50 [2] was 10.7 µM (inactive). For the same compound, the GI50 [3] was 12.1 µM (inactive), the GI50 [4] was 11.9 µM (inactive) and the GI50 [5] was 14.1 µM (inactive). For the same compound, the GI50 [6] was 17.3 µM (inactive), the GI50 [7] was 8.61 µM (inactive) and the GI50 [8] was 12.1 µM (inactive). For the same compound, the GI50 [9] was 12.1 µM (inactive), the GI50 [10] was 12.5 µM (inactive) and the GI50 [11] was 11 µM (inactive). For the same compound, the GI50 [19] was 11.4 µM (inactive), the GI50 [12] was 12.4 µM and the GI50 [13] was 4.88 µM (inactive). For the same compound, the GI50 [14] was 12.3 µM (inactive), the GI50 [15] was 11.5 µM (inactive) and the GI50 [16] was 10.5 µM (inactive). The GI50 [17] was 17.9 µM (inactive).
With `C[C@H]1[C@H](C)CC[C@]2(C(=O)OC3OC(CO)C(O)C(O)C3O)CC[C@]3(C)C(=CC[C@@H]4[C@@]5(C)C[C@H]6OC(=O)c7cc(O)c(O)c(O)c7-c7c(cc(O)c(O)c7O)C(=O)O[C@@H]6C(CO)(CO)[C@@H]5CC[C@]43C)[C@H]12` (stereo not given in full) the GI50 [18] was 19.5 µM (inactive), the GI50 [1] was 24.1 µM (inactive) and the GI50 [2] was 18.7 µM (inactive). For the same compound, the GI50 [3] was 99.3 µM (inactive), the GI50 [4] was 16.4 µM (inactive) and the GI50 [5] was 40.6 µM (inactive). For the same compound, the GI50 [6] was > 100 µM (inactive), the GI50 [7] was 25.5 µM (inactive) and the GI50 [8] was 15.6 µM (inactive). The GI50 [9] was > 100 µM (inactive), the GI50 [10] was 17 µM (inactive) and the GI50 [11] was 27.1 µM (inactive). For the same compound, the GI50 [19] was 49.3 µM (inactive), the GI50 [12] was 24.8 µM and the GI50 [13] was 44 µM (inactive). For the same compound, the GI50 [14] was 19.5 µM (inactive), the GI50 [15] was 58.3 µM (inactive) and the GI50 [16] was > 100 µM (inactive). For the same compound, the GI50 [17] was > 91.8 µM (inactive).
`CC(C)CNc1nc(N)nc(O)c1NC=O` was tested, and the GI50 [18] was > 100 µM (inactive), the GI50 [1] was > 100 µM (inactive) and the GI50 [2] was > 100 µM (inactive). For the same compound, the GI50 [3] was > 100 µM (inactive), the GI50 [4] was > 100 µM (inactive) and the GI50 [5] was > 100 µM (inactive). For the same compound, the GI50 [6] was > 100 µM (inactive), the GI50 [7] was > 100 µM (inactive) and the GI50 [8] was > 100 µM (inactive). The GI50 [9] was > 100 µM (inactive), the GI50 [10] was > 100 µM (inactive) and the GI50 [11] was > 100 µM (inactive). For the same compound, the GI50 [19] was > 100 µM (inactive), the GI50 [12] was over 100 µM and the GI50 [13] was > 100 µM (inactive). For the same compound, the GI50 [14] was > 100 µM (inactive), the GI50 [15] was > 100 µM (inactive) and the GI50 [16] was > 100 µM (inactive). The GI50 [17] was > 100 µM (inactive).
For `C/C=C/COc1cc(NC(=S)OC(C)C)ccc1Cl.C/C=C\COc1cc(NC(=S)OC(C)C)ccc1Cl`, the GI50 [18] was 4.06 µM (inactive), the GI50 [1] was 15.3 µM (inactive) and the GI50 [2] was 21.2 µM (inactive). For the same compound, the GI50 [3] was 15.8 µM (inactive), the GI50 [4] was 19.5 µM (inactive) and the GI50 [5] was 20.2 µM (inactive). For the same compound, the GI50 [7] was 16.1 µM (inactive), the GI50 [8] was 23.8 µM (inactive) and the GI50 [9] was 14.9 µM (inactive). For the same compound, the GI50 [10] was 19.8 µM (inactive), the GI50 [11] was 16.8 µM (inactive) and the GI50 [12] was 17.3 µM. For the same compound, the GI50 [13] was 19.3 µM (inactive), the GI50 [14] was 17.3 µM (inactive) and the GI50 [15] was 14.2 µM (inactive). For the same compound, the GI50 [16] was 19.6 µM (inactive) and the GI50 [17] was 17.5 µM (inactive).
In the case of `N=C(N)c1ccc(/N=N\c2c(O)ccc3cc4c(/N=N\c5ccc(C(=N)N)cc5)c(O)ccc4cc23)cc1`, the GI50 [18] was > 100 µM (inactive), the GI50 [1] was 75.9 µM (inactive) and the GI50 [2] was > 100 µM (inactive). For the same compound, the GI50 [3] was > 100 µM (inactive), the GI50 [5] was 50.8 µM (inactive) and the GI50 [6] was > 100 µM (inactive). The GI50 [7] was > 100 µM (inactive), the GI50 [8] was 29 µM (inactive) and the GI50 [9] was > 100 µM (inactive). For the same compound, the GI50 [10] was 87.9 µM (inactive), the GI50 [11] was > 100 µM (inactive) and the GI50 [19] was 31.2 µM (inactive). For the same compound, the GI50 [12] was 56 µM, the GI50 [13] was 25.2 µM (inactive) and the GI50 [14] was 49 µM (inactive). For the same compound, the GI50 [15] was > 100 µM (inactive), the GI50 [16] was > 100 µM (inactive) and the GI50 [17] was > 100 µM (inactive).
With `N#C/C=C1\C=CC(O)C(O)C1OC1OC(CO)C(O)C(O)C1O` (stereo not given) the GI50 [18] was > 100 µM (inactive), the GI50 [1] was > 100 µM (inactive) and the GI50 [2] was > 100 µM (inactive). For the same compound, the GI50 [3] was > 100 µM (inactive), the GI50 [4] was > 100 µM (inactive) and the GI50 [5] was > 100 µM (inactive). For the same compound, the GI50 [6] was > 100 µM (inactive), the GI50 [7] was > 100 µM (inactive) and the GI50 [8] was > 100 µM (inactive). The GI50 [9] was > 100 µM (inactive), the GI50 [10] was > 100 µM (inactive) and the GI50 [11] was > 100 µM (inactive). The GI50 [19] was > 100 µM (inactive), the GI50 [12] was over 100 µM and the GI50 [13] was > 100 µM (inactive). For the same compound, the GI50 [14] was > 100 µM (inactive), the GI50 [15] was > 100 µM (inactive) and the GI50 [16] was > 100 µM (inactive).
In the case of `NC(=O)c1ccc(NS(=O)(=O)c2ccc(N)cc2)nc1`, the GI50 [18] was > 100 µM (inactive), the GI50 [1] was > 100 µM (inactive) and the GI50 [2] was > 100 µM (inactive). The GI50 [3] was > 100 µM (inactive), the GI50 [4] was > 100 µM (inactive) and the GI50 [5] was > 100 µM (inactive). The GI50 [6] was > 100 µM (inactive), the GI50 [7] was > 100 µM (inactive) and the GI50 [8] was > 100 µM (inactive). For the same compound, the GI50 [10] was > 100 µM (inactive), the GI50 [11] was > 100 µM (inactive) and the GI50 [19] was > 100 µM (inactive). For the same compound, the GI50 [12] was over 100 µM, the GI50 [13] was > 100 µM (inactive) and the GI50 [14] was > 100 µM (inactive). The GI50 [15] was > 100 µM (inactive), the GI50 [16] was > 100 µM (inactive) and the GI50 [17] was > 100 µM (inactive).
